Experimental data as given in publication PMC4275348 (Molecular microbiology, 2014).
Where a chain is given by its changes, count along the chain named.

Tests used:
luxN^S184I/S230P = target: T1, luxN^S184I/S230P (Vibrio campbellii, UniProt A7MRY4, S184I/S230P); test: Bioluminescence of V. harveyi XK006 carrying luxN S184I/S230P; format: cell-based, Vibrio harveyi; settings: 10 μM 3O-C10 HSL
T1 sequence (A7MRY4 1-849 S184I/S230P): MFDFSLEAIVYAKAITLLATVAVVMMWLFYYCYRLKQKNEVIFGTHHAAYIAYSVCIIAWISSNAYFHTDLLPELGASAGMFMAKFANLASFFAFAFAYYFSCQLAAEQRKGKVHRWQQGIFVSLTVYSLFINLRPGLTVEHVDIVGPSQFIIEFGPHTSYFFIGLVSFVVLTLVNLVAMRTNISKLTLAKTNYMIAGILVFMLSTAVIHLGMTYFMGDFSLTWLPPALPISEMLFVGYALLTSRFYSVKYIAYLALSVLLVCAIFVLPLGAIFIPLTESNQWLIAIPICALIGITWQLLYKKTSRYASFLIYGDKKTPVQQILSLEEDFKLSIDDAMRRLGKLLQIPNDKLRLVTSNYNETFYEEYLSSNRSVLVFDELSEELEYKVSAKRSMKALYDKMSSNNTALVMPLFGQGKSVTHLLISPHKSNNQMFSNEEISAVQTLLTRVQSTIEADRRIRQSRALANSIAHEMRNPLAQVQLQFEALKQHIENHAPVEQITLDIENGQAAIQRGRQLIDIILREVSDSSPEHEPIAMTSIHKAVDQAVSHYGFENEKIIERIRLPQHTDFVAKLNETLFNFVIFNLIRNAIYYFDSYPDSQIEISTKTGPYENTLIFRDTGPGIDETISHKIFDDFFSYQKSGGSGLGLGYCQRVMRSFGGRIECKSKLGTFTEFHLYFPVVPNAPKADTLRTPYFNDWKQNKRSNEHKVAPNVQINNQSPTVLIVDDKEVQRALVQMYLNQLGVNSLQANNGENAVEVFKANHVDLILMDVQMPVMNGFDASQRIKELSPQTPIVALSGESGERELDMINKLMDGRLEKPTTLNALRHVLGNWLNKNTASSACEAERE

luxN^T159I/Y193K = target: T2, luxN^T159I/Y193K (Vibrio campbellii, UniProt A7MRY4, N193K/T159I); test: Bioluminescence of V. harveyi XK006 carrying luxN T159I/Y193K; format: cell-based, Vibrio harveyi; settings: 10 μM 3O-C10 HSL
T2 sequence (A7MRY4 1-849 T159I/N193K): T1 sequence (A7MRY4 1-849 S184I/S230P) with T159I, I184S, N193K, P230S

luxN^S230P = luxN^S230P (Vibrio campbellii, UniProt A7MRY4, S230P); settings: 10 μM 3O-C10 HSL
LuxN [1] = target: T3, LuxN (Vibrio campbellii, UniProt A7MRY4); format: cell-based, Vibrio harveyi; settings: 1 μM AHL with 20 nM AI-1; V. harveyi TL25
WT AinR = test: Bioluminescence of V. harveyi XK006 harboring WT V. fischeri ainR; format: cell-based, Vibrio fischeri; settings: AHLs added at 1 μM
AinR^Q204H = test: Bioluminescence of V. harveyi XK006 harboring ainR Q204H; format: cell-based, Vibrio fischeri
LuxN^L166A = LuxN^L166A (Vibrio campbellii, UniProt A7MRY4, L166A)
luxN^L166A/H210N = luxN^L166A/H210N (Vibrio campbellii, UniProt A7MRY4, H210N/L166A); settings: AHLs added at 1 μM
[2] = target: LuxN^L166A mutant with Ser209 (Vibrio campbellii, UniProt A7MRY4, I209S/L166A); settings: AHLs added at 1 μM
WT LuxN = WT LuxN (Vibrio campbellii, UniProt A7MRY4); settings: XK006 carrying WT luxN
LuxN^H210Q = target: T4, LuxN^H210Q (Vibrio campbellii, UniProt A7MRY4, H210Q); test: Bioluminescence of V. harveyi XK006 carrying luxN H210Q; format: cell-based, Vibrio harveyi; settings: 1 μM AHL
T4 sequence (A7MRY4 1-849 H210Q): T1 sequence (A7MRY4 1-849 S184I/S230P) with I184S, H210Q, P230S

LuxN^H210T = target: T5, LuxN^H210T (Vibrio campbellii, UniProt A7MRY4, H210T); test: Bioluminescence of V. harveyi XK006 carrying luxN H210T; format: cell-based, Vibrio harveyi; settings: 1 μM AHL
T5 sequence (A7MRY4 1-849 H210T): T1 sequence (A7MRY4 1-849 S184I/S230P) with I184S, H210T, P230S

Kin^off LuxN mutants = test: Bioluminescence of V. harveyi XK847 harboring Kin^off luxN alleles; format: cell-based, Vibrio harveyi
LuxN [3] = target: T3, LuxN; settings: 1 μM AHL; V. harveyi TL25

With CCCCCCCC(=O)CC(=O)N[C@H]1CCOC1=O [3O-C10 HSL] the “increase in light production” value (luxN^S184I/S230P) was 10 fold, the “increase in light production” value (luxN^T159I/Y193K) was 20 fold and the “induction of light production” value (luxN^S230P) was 20 fold.
CCCCCC(O)CC(=O)N[C@H]1CCOC1=O (some centres unmarked) [3OH-C8 HSL] was tested, and the “reduction in light production” value (LuxN [1]) was “five-fold”, the light production (WT AinR) was “light production was induced” and the “detection (light production)” value (AinR^Q204H) was “lost the ability to detect”. The “detection (light production)” value (LuxN^L166A) was “robustly detects”, the light production (luxN^L166A/H210N) was “Significantly less light” and the “ligand detection (light production)” value [2] was “restricted to 3OH-C8 HSL”.
With C[C@@H](O)CC(=O)N[C@H]1CCOC1=O [(S)-3OH-C4 HSL] the “response (dose-dependent light production)” value (WT LuxN) was “did not respond”.
For CCCC(=O)N[C@H]1CCOC1=O [C4 HSL], the “induction of light production” value (LuxN^H210Q) was 30 fold, the “induction of light production” value (LuxN^H210T) was 100 fold and the “light production / detection” value (Kin^off LuxN mutants) was “also detected”. For the same compound, the “induction of light production” value (LuxN [3]) was “did not induce light production”.
